Measured values from patent US10955415B2, “CD247 as a biomarker for assessing the effect of chemotherapeutic and biological drugs” (YISSUM RESEARCH DEVELOPMENT COMPANY OF THE HEBREW …, priority 2011, dated 2021).
Entries after “also recorded” stand apart in the source; their conditions may differ.

Assays:
MDSCs (Gr1+CD11b+) = tested on: MDSCs (Gr1+CD11b+); design: species or system mice; conditions: mouse, in vivo
CD3ε chain = tested on: CD3ε chain; design: species or system mice; conditions: mouse, in vivo
CD247 = assay: Adoptive transfer of CFSE-labeled normal splenocytes, CD247 in host and donor cells; format: in vivo, mice; conditions: BCG-inflamed hosts, 24 h after transfer, spleen
Description: CFSE-labeled splenocytes from normal mice (donor cells) were adoptively transferred into mice untreated, inflamed, and inflamed treated i.p. with irinotecan (hosts). After 24 h, splenocytes from each group were harvested and stained for CD247 expression (MFI) in CD3+ T cells within the CFSE+ (donor-cell) or CFSE− (host-cell) population. Data from three independent experiments (n=4) is presented. Statistical analyses using t test indicated significant differences at 95% Cl. Means and SEM are shown. * P<0.05. Abbreviations: Ho. (host), Do. (donor), cont. (control).
CFSE-labeled splenocytes from normal mice (donor cells) were adoptively transferred into non-inflamed, inflamed, and inflamed mice treated i.p. with 5-FU (hosts). After 24 h, splenocytes from each group were harvested and stained for CD247 expression (MFI) in CD3+ T cells within the CFSE+ (donor-cell) or CFSE− (host-cell) population. Data from three independent experiments (n=4) is presented. Statistical analyses using t test indicated significant differences at 95% Cl. Means and SEM are shown. *, P<0.05. Abbreviations: Ho. (host), Do. (donor), cont. (control).
Next, the effect of etanercept treatment on the host's immune status as well as on adoptively transferred T- and NK-cells was examined. It should be noted that adoptively transferred T- and NK-cells being a treatment that is frequently used today in different immunotherapeutic regiments for various pathologies. To this end, CFSE-labeled normal splenocytes were administered, i.v., 1 day before cell harvest, at the peak of the inflammatory response (mimicking cell mediated therapies).

S100A8/9 = S100A8/9 mRNA and S100A9 immunoblot in purified MDSCs and total spleen; format: in vivo; conditions: purified MDSCs and total splenic population, BCG-inflamed mice; for S100A9 protein levels: immunoblot
Source text: FIG. 17A. Purified MDSCs from spleens (n=4); and FIG. 17B. A total spleen population was used to analyze mRNA levels of S100A8/9 (left), and to perform immunoblotting of S100A9 (right) following the course of chronic inflammation alone, chronically inflamed mice treated with 5-FU or CPT11 (n=4), α-Tubulin levels served as a control.
Analyses used either the splenocyte population or peripheral blood as mentioned above. Cells (5×10^7/ml, or 1×10^6/ml) were lysed with Tris-NaCl buffer containing 0.5% Triton X-100 and protease inhibitors for 30 min on ice. Proteins were resolved on 12% SDS-PAGE and subjected to immunoblotting analysis using the following specific antibodies: anti-CD247, antiCD3ε antibodies, anti-S100A9, anti-S100A8, anti-iNOS, anti-ARG1, and anti-αTubulin antibodies. Specific antibodies were detected by incubation with protein A (Amersham), anti-rat or anti-goat antibodies conjugated to horseradish peroxidase (Jackson Immunoresearch), followed by enhanced chemiluminescence and exposure to Kodak X-ray films.
Total RNA was recovered from splenocytes or isolated MDSCs using Tri-Reagent (Sigma) and was subjected to reverse transcription with m-MLV-RT (Invitrogen) and random primers (IDT). Quantitative mRNA expression was analyzed by real-time PCR (ABI 7900), with SYBR green (Invitrogen). RT-PCR primers were designed to recognize an exon-exon boundary in all transcripts.

cleaved caspase-3 = assay: Cleaved caspase-3 in splenic MDSCs (flow cytometry); format: in vivo; conditions: BCG-inflamed mice
Source text: FIG. 17F. […] Means and SEM are shown. *, P<0.05; **, P<0.01. Abbreviations: Inf. (inflamed), Tot. sp. (total spleen), sp (spleen), g. (gated), Norm. (normal).

[1] = tested on: CD11b+CD11c+ and CD11b+F4/80+ cells; assay: Myeloid differentiation state in spleen (DCs, macrophages, APC maturation); format: in vivo; conditions: BCG-inflamed mice
Source text: FIG. 18A-18E. Splenocytes and PBLs from mice untreated (naïve), inflamed, or inflamed and treated with 5-FU or CPT-11 were fixed, permeabilized, and double stained for the expression of CD247 (ζ-chain) (FIGS. 18A, 18B) and CD3ε-chain (FIGS. 18D, 18E), as shown by mean fluorescence intensity (MFI), measured in gated CD3^+ cells. FIG. 18C: Splenocytes from mice, naïve, inflamed and inflamed treated with 5-FU or CPT-11, were labeled with CFSE and activated with anti-CD3 and anti-CD28 antibodies or left non-activated. The proliferative response was assessed by monitoring cell divisions of gated CFSE-labeled Thy1.2+ (CD90+) T-cells. The percent of proliferating cells was calculated and compared to steady state levels of non-activated cells per each group. Data from three independent experiments is presented (n=3). Statistical analyses using t test indicated significant differences at 95%. Means and SEM are shown. *, P<0.05; **, P<0.01. FIG. 18F-18I. For the detection of myeloid differentiation state, splenocytes from each group were stained for (18F) DC11b^+CD11c^+ cells (representing DCs), (18G) DC11b^+F4/80^+ cells (representing monocytes), (18H) CD11c^+MHCII^+CD80^+ cells (representing fully differentiated […] as antigen presenting cells) and (18I) F4/80^+MHCII^+CD80^+ cells (representing fully differentiated […] as antigen presenting cells). Data from three independent experiments (n=4) is presented. Statistical analyses using t test indicated significant differences at 95%. Means and SEM are shown. *, P<0.05; **, P<0.01; ***, P<0.001. Abbreviations: Nor. (normal), Rel. (relative), Inf. (inflamed), ce. Pro. (cell proliferation)
Isolated splenocytes and peripheral blood leukocytes (PBLs) were treated with erythrocyte lysis buffer and washed in PBS. Cells were pre-coated with anti-CD16/CD32 (Biolegend) for FcR blockage. For surface staining, cells were incubated for 30 min at 4° C. with FITC-labeled anti-Gr1, anti-CD11c, and anti-CD4; PE-labeled anti F4/80, anti-CD3ε, anti-CD45R/B220, and anti-mNKp46; and biotinylated anti-CD11b and anti-CD8 that were detected with streptavidin-Cy5 (Biolegend and eBioscience). Intracellular staining of CD247 cells was performed by subjecting the cells to fixation with paraformaldehyde (1%) for 20 min at 4° C., followed by washing and permeabilization for 10 min with saponin detergent (0.1%) at room temperature (RT). Cells were then washed and incubated with FITC-labeled monoclonal anti-CD247 (H146) (Abcam), or biotinylated monoclonal anti-CD247 (H146), which were subsequently detected with streptavidin-Cy5. FoxP3 staining was performed according to the manufacturer's instructions. Samples were analyzed using FACSCalibur with Cell Quest software (BD).

MDSCs = assay: NO production of MDSCs in colon epithel and lamina propria, CRC mouse model; format: in vivo; conditions: CRC-bearing mice, gated on MDSCs

SMILES | MDSC levels in peripheral blood (PBLs) (MDSCs (Gr1+CD11b+)) | MDSC levels in the spleen (MDSCs (Gr1+CD11b+)) | CD3ε expression levels (CD3ε chain) | CD247 expression in host and adoptively transferred donor T cells (CD247) | mRNA levels of S100A8/9 (S100A8/9) | S100A9 protein levels (S100A8/9) | cleaved caspase-3 expression in spleen-derived MDSCs (cleaved caspase-3) | differentiated myeloid cells in spleen (CD11b+CD11c+ DCs, CD11b+F4/80+ macrophages) [1] | maturation of antigen presenting cells (CD80 and MHCII expression) [1] | NO production in epithel and lamina propria (MDSCs)
O=c1[nH]cc(F)c(=O)[nH]1 [5-FU, 5-Fluorouracil] | significant decline; also recorded: decrease; also recorded: reduced | significant decline; also recorded: decrease; also recorded: reduced | rather constant; also recorded: not down regulated | clear significant increase | significant decrease | decreased amounts | significant increase | significant turning towards differentiated myeloid population | enhanced the maturation | reduced
CCc1c2c(nc3ccc(OC(=O)N4CCC(N5CCCCC5)CC4)cc13)-c1cc3c(c(=O)n1C2)COC(=O)[C@]3(O)CC [Irinotecan] | remained high; also recorded: no changes | significantly enhanced; also recorded: significantly increased | remained unchanged; also recorded: not down regulated | significant further decrease | no significant changes | remained high |  | blockage of the myeloid cell differentiation and maturation |  | 
